Assays:
giant foxtail [1] = assay: Test C preemergence; type: in vivo, Setaria faberii
How it was run: (§1)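 Visual injury score versus untreated controls, 0 = no effect, 100 = complete control, taken 13 to 15 days after treatment in the greenhouse. Pre-emergence pots held loam/sand; post-emergence plants grew in sphagnum peat/vermiculite mix and were sprayed at the 1- to 4-leaf stage.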

giant foxtail [2] = assay: Test A preemergence; type: in vivo, Setaria faberii
How it was run: (§2)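 Compounds in non-phytotoxic solvent with surfactant applied as soil spray preemergence, or postemergence to plants 2-10 cm at one- to two-leaf stage, in loam/sand. After approximately 10 days in greenhouse, injury rated visually versus untreated controls, 0 (no effect) to 100 (complete control).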

yellow nutsedge = assay: Test C preemergence; type: in vivo, Cyperus esculentus
How it was run: as §1

galium = assay: Test C preemergence; type: in vivo, Galium aparine
How it was run: as §1

lambsquarters = assay: Test C preemergence; type: in vivo, Chenopodium album
How it was run: as §1

Italian ryegrass = assay: Test A preemergence; type: in vivo, Lolium multiflorum
How it was run: as §2

johnsongrass = assay: Test C preemergence; type: in vivo, Sorghum halepense
How it was run: as §1

large (Lg) crabgrass = assay: Test C preemergence; type: in vivo, Digitaria sanguinalis
How it was run: as §1

[3] = 16 g ai/ha, preemergence, scale 0 to 100 (0 no effect, 100 complete control)
[4] = 62 g ai/ha, preemergence, scale 0 (no effect) to 100 (complete control)
[5] = 125 g ai/ha, preemergence, scale 0 (no effect) to 100 (complete control)
[6] = Preemergence, 31 g ai/ha, scale 0 to 100, 0 no effect, 100 complete control
[7] = 125 g ai/ha, 0 to 100 scale where 0 is no effect and 100 is complete control

N#Cc1cccc(Oc2ncc(Cl)cn2)c1-n1cnc(C(F)(F)F)c1 [Compound 252, 3-[(5-chloro-2-pyrimidinyl)oxy]-2-[4-(trifluoromethyl)-1H-imidazol-1-yl]benzonitrile]
pest or weed control at 16 g/ha (giant foxtail [1]; Setaria faberi, pre-emergence, 16 g ai/ha, preemergence, scale 0 to 100 (0 no effect, 100 complete control), read-out: Foxtail, Giant plant response rating): 35% | pest or weed control at 125 g/ha (giant foxtail [1]; Setaria faberi, pre-emergence, 125 g ai/ha, preemergence, scale 0 (no effect) to 100 (complete control), read-out: Foxtail, Giant plant response rating): 100% | pest or weed control at 62 g/ha (giant foxtail [1]; Setaria faberi, pre-emergence, Preemergence, 62 g ai/ha, scale 0 to 100, 0 no effect, 100 complete control, read-out: Plant response rating, Foxtail, Giant): 100% | Foxtail, Giant plant response rating (0 to 100 scale) (giant foxtail [2]; 125 g ai/ha): 100 | pest or weed control at 31 g/ha (giant foxtail [2]; Setaria faberi, pre-emergence, 240 h, 31 g ai/ha, 0 to 100 scale where 0 is no effect and 100 is complete control, visual, approximately 10 days, read-out: Plant response rating, Foxtail, Giant): 70% | pest or weed control at 500 g/ha (giant foxtail [2]; Setaria faberi, pre-emergence, 240 h, 500 g ai/ha, 0 to 100 scale where 0 is no effect and 100 is complete control, read-out: Foxtail, Giant plant response rating): 100% | pest or weed control at 16 g/ha (yellow nutsedge; Cyperus, pre-emergence, 16 g ai/ha, preemergence, scale 0 to 100 (0 no effect, 100 complete control), read-out: Nutsedge, Yellow plant response rating): 0% | pest or weed control at 125 g/ha (yellow nutsedge; Cyperus, pre-emergence, 125 g ai/ha, preemergence, scale 0 (no effect) to 100 (complete control), read-out: Nutsedge, Yellow plant response rating): 60% | pest or weed control at 62 g/ha (yellow nutsedge; Cyperus, pre-emergence, Preemergence, 62 g ai/ha, scale 0 to 100, 0 no effect, 100 complete control, read-out: Plant response rating, Nutsedge, Yellow): 40% | pest or weed control at 16 g/ha (galium; Galium, pre-emergence, 16 g ai/ha, preemergence, scale 0 to 100 (0 no effect, 100 complete control), read-out: Galium plant response rating): 80% | pest or weed control at 125 g/ha (galium; Galium, pre-emergence, 125 g ai/ha, preemergence, scale 0 (no effect) to 100 (complete control), read-out: Galium plant response rating): 98% | pest or weed control at 62 g/ha (galium; Galium, pre-emergence, Preemergence, 62 g ai/ha, scale 0 to 100, 0 no effect, 100 complete control, read-out: Plant response rating, Galium): 90% | pest or weed control at 16 g/ha (lambsquarters; Chenopodium album, pre-emergence, 16 g ai/ha, preemergence, scale 0 to 100 (0 no effect, 100 complete control), read-out: Lambsquarters plant response rating): 98% | pest or weed control at 125 g/ha (lambsquarters; Chenopodium album, pre-emergence, 125 g ai/ha, preemergence, scale 0 (no effect) to 100 (complete control), read-out: Lambsquarters plant response rating): 100% | pest or weed control at 62 g/ha (lambsquarters; Chenopodium album, pre-emergence, Preemergence, 62 g ai/ha, scale 0 to 100, 0 no effect, 100 complete control, read-out: Plant response rating, Lambsquarters): 100% | Plant response rating, Ryegrass, Italian (Italian ryegrass; 31 g ai/ha, 0 to 100 scale where 0 is no effect and 100 is complete control, visual, approximately 10 days): 20 | Ryegrass, Italian plant response rating (0 to 100 scale) (Italian ryegrass; 125 g ai/ha): 20 | Ryegrass, Italian plant response rating (Italian ryegrass; 500 g ai/ha, 0 to 100 scale where 0 is no effect and 100 is complete control): 90 | pest or weed control at 16 g/ha (johnsongrass; Sorghum halepense, pre-emergence, 16 g ai/ha, preemergence, scale 0 to 100 (0 no effect, 100 complete control), read-out: Johnsongrass plant response rating): 5% | pest or weed control at 125 g/ha (johnsongrass; Sorghum halepense, pre-emergence, 125 g ai/ha, preemergence, scale 0 (no effect) to 100 (complete control), read-out: Johnsongrass plant response rating): 100% | pest or weed control at 62 g/ha (johnsongrass; Sorghum halepense, pre-emergence, Preemergence, 62 g ai/ha, scale 0 to 100, 0 no effect, 100 complete control, read-out: Plant response rating, Johnsongrass): 80% | pest or weed control at 16 g/ha (large (Lg) crabgrass; Digitaria sanguinalis, pre-emergence, 16 g ai/ha, preemergence, scale 0 to 100 (0 no effect, 100 complete control), read-out: Crabgrass, Large plant response rating): 60% | pest or weed control at 125 g/ha (large (Lg) crabgrass; Digitaria sanguinalis, pre-emergence, 125 g ai/ha, preemergence, scale 0 (no effect) to 100 (complete control), read-out: Crabgrass, Large plant response rating): 100% | pest or weed control at 62 g/ha (large (Lg) crabgrass; Digitaria sanguinalis, pre-emergence, Preemergence, 62 g ai/ha, scale 0 to 100, 0 no effect, 100 complete control, read-out: Plant response rating, Crabgrass, Large): 100%

FCc1cccc(Oc2ncc(F)cn2)c1-n1cc(C(F)(F)F)cn1 [Compound 118]
Foxtail, Giant plant response rating (giant foxtail [1]; [3]): 25 | Foxtail, Giant plant response rating (giant foxtail [1]; [4]): 95 | Foxtail, Giant plant response rating (giant foxtail [1]; [5]): 100 | Plant response rating, Foxtail, Giant (giant foxtail [1]; [6]): 75 | Foxtail, Giant plant response rating (0 to 100 scale) (giant foxtail [2]; 31 g ai/ha): 80 | Plant response rating, Foxtail, Giant (giant foxtail [2]; [7]): 100 | Nutsedge, Yellow plant response rating (yellow nutsedge; [3]): 0 | Nutsedge, Yellow plant response rating (yellow nutsedge; [4]): 25 | Nutsedge, Yellow plant response rating (yellow nutsedge; [5]): 70 | Plant response rating, Nutsedge, Yellow (yellow nutsedge; [6]): 5 | Galium plant response rating (galium; [3]): 95 | Galium plant response rating (galium; [4]): 100 | Galium plant response rating (galium; [5]): 100 | Plant response rating, Galium (galium; [6]): 95 | Lambsquarters plant response rating (lambsquarters; [3]): 100 | Lambsquarters plant response rating (lambsquarters; [4]): 100 | Lambsquarters plant response rating (lambsquarters; [5]): 100 | Plant response rating, Lambsquarters (lambsquarters; [6]): 100 | Ryegrass, Italian plant response rating (0 to 100 scale) (Italian ryegrass; 31 g ai/ha): 0 | Plant response rating, Ryegrass, Italian (Italian ryegrass; [7]): 50 | Johnsongrass plant response rating (johnsongrass; [3]): 0 | Johnsongrass plant response rating (johnsongrass; [4]): 85 | Johnsongrass plant response rating (johnsongrass; [5]): 100 | Plant response rating, Johnsongrass (johnsongrass; [6]): 25 | Crabgrass, Large plant response rating (large (Lg) crabgrass; [3]): 30 | Crabgrass, Large plant response rating (large (Lg) crabgrass; [4]): 85 | Crabgrass, Large plant response rating (large (Lg) crabgrass; [5]): 100 | Plant response rating, Crabgrass, Large (large (Lg) crabgrass; [6]): 80

From US9695155B2, “Herbicidal substituted pyrimidinyloxy benzene compounds” (E. I. DU PONT DE NEMOURS AND COMPANY, priority 2013, dated 2017)
